Source: ChEMBL document CHEMBL5137023, “Discovery of 2H-benzo[b][1,4]oxazin-3(4H)-one derivatives as potent and selective CDK9 inhibitors that enable transient target engagement for the treatment of hematologic malignancies” (Eur J Med Chem, 2022)
In brackets after ≈: the same amount, converted by molar mass. Activity calls are given as the source filed them. The rule behind the calls is not given here.

How the values were obtained:
CDK9/cyclin T1 = CDK9/cyclin T1 (Homo sapiens, UniProt P50750); test: Inhibition of CDK9/Cyclin T1 (unknown origin) preincubated for 10 mins followed by ATP and CTD3 addition and measured after 30 mins by mobility shift assay; format: protein-complex assay
[1] = Kinetic solubility of the compound in pH 7.4 PBS buffer incubated for 24 hrs under shaking condition by HPLC analysis; format: physicochemical; conditions: read-out: Kinetic_solubility
[2] = Half life in Sprague-Dawley rat at 1 mg/kg, iv bolus injection measured upto 24 hrs by LC-MS/MS analysis; format: ADME, organism-based; conditions: in vivo
[3] = Initial plasma concentration in Sprague-Dawley rat at 1 mg/kg, iv bolus injection measured upto 24 hrs by LC-MS/MS analysis; format: ADME, organism-based
[4] = Clearance in Sprague-Dawley rat at 1 mg/kg, iv bolus injection measured upto 24 hrs by LC-MS/MS analysis; format: ADME, organism-based; conditions: in vivo
[5] = MRT(0 to t) in Sprague-Dawley rat at 1 mg/kg, iv bolus injection measured upto 24 hrs by LC-MS/MS analysis; format: ADME, organism-based; conditions: in vivo
[6] = MRT(0 to infinity) in Sprague-Dawley rat at 1 mg/kg, iv bolus injection measured upto 24 hrs by LC-MS/MS analysis; format: ADME, organism-based; conditions: in vivo
[7] = AUC(0 to t) in Sprague-Dawley rat at 1 mg/kg, iv bolus injection measured upto 24 hrs by LC-MS/MS analysis; format: ADME, organism-based; set-up: dose 1 mg/kg, time < 24 hrs, route iv; conditions: in vivo
[8] = Elimination rate constant in Sprague-Dawley rat at 1 mg/kg, iv bolus injection measured upto 24 hrs by LC-MS/MS analysis; format: ADME, organism-based; conditions: in vivo
[9] = Volume of distribution at steady state in Sprague-Dawley rat at 1 mg/kg, iv bolus injection measured upto 24 hrs by LC-MS/MS analysis; format: ADME, organism-based; conditions: in vivo, read-out: Vdss
MV4-11 [10] = test: Antiproliferative activity against human MV4-11 cells assessed as inhibition of cell growth incubated for 72 hrs by CTG- luminescence assay; format: functional, cell-based; conditions: MV4-11, 72 h
[11] = AUC(0 to infinity) in Sprague-Dawley rat at 1 mg/kg, iv bolus injection measured upto 24 hrs by LC-MS/MS analysis; format: ADME, organism-based; set-up: time < 24 hrs, dose 1 mg/kg, route iv; conditions: in vivo
MV4-11 [12] = test: Inhibition of RNA polymerase 2 phosphorylation at Ser2 residue in human MV4-11 cells at 1 uM incubated for 24 hrs by Western blot analysis; format: cell-based
MV4-11 [13] = test: Downregulation of c-Myc expression in human MV4-11 cells at 1 uM incubated for 24 hrs by Western blot analysis; format: functional, cell-based
MV4-11 [14] = test: Downregulation of Mcl-1 expression in human MV4-11 cells at 1 uM incubated for 24 hrs by Western blot analysis; format: functional, cell-based
MV4-11 [15] = test: Antiproliferative activity against human MV4-11 cells assessed as inhibition of cell growth at 0.37 uM incubated for 72 hrs by CTG- luminescence assay relative to control; format: functional

CDK9/cyclin T1, sequence (O60563 whole entry): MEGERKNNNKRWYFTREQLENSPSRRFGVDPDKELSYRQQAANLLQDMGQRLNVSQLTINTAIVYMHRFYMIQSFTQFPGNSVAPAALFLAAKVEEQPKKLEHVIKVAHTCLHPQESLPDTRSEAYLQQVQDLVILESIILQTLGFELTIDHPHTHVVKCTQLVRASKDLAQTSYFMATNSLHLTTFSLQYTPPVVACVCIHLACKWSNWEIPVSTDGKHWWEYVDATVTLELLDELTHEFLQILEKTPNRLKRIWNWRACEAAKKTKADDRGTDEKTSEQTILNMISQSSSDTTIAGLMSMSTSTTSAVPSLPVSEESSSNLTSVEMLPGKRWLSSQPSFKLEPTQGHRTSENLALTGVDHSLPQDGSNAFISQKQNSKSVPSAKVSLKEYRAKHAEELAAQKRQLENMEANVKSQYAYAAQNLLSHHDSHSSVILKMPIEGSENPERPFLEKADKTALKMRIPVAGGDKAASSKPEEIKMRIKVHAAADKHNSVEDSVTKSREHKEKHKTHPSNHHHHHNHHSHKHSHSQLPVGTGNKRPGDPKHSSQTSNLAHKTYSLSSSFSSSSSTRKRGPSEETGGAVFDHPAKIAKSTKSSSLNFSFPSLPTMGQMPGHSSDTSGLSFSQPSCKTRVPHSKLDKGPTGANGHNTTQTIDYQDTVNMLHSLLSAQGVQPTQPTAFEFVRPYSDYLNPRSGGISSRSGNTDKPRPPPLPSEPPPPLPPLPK
CDK9/cyclin T1, sequence (P50750 whole entry): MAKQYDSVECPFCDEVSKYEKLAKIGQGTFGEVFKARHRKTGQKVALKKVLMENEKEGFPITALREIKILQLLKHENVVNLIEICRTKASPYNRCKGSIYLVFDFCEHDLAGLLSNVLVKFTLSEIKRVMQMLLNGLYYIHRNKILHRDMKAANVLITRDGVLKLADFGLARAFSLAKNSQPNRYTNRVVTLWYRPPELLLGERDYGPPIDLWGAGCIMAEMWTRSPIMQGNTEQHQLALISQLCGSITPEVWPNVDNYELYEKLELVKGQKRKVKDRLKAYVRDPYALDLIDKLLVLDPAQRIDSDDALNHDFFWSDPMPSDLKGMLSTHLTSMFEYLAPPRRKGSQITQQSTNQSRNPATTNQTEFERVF

Row | SMILES | IC50 (CDK9/cyclin T1) [µM] | IC50 (MV4-11 [10]) [µM] | also measured
1 | CCN1C(=O)COc2c(CN3CCOCC3)cc(Nc3nccc(-c4ccc(F)cc4OCc4ccccc4)n3)cc21 | > 0.1 | – | –
2 | CCN(CC)Cc1cc(Nc2ncc(F)c(-c3ccc(F)cc3OC)n2)cc2c1OCC(=O)N2CC | 0.0026 | 0.026 | solubility kinetic at 24 h [1]: 3.9 µg/mL (≈ 7.84 µM); half-life [2]: 29.8 min; C0 at 24 h [3]: 155 ng/mL; clearance [4]: 168 mL/min/kg; MRT last at 24 h [5]: 36.7 min; MRT inf [6]: 41.3 min; AUC(0-t) at 24 h [7]: 107 ng·h/mL; k el at 24 h [8]: 0.0004 s⁻¹; Vd [9]: 6.45 L/kg; AUC(0-inf) [11]: 111 ng·h/mL
3 | CCN1C(=O)COc2c(CN3CCCCC3)cc(Nc3ncc(F)c(-c4ccc(F)cc4OC)n3)cc21 | 0.0027 | 0.05 | –
4 | CCN1C(=O)COc2c(CN(C)CCOC)cc(Nc3ncc(F)c(-c4ccc(F)cc4OC)n3)cc21 | 0.0023 | 0.065 | –
5 | CCN1C(=O)COc2c(CN3CCOCC3)cc(Nc3cc(-c4ccc(F)cc4OC)c(Cl)cn3)cc21 | 0.08 | – | –
6 | CCN1C(=O)COc2c(CN3CCNCC3)cc(Nc3ncc(F)c(-c4ccc(F)cc4OC)n3)cc21 | 0.0042 | 0.128 | –
7 | CCN1C(=O)COc2c(CN(C)CCNC)cc(Nc3ncc(F)c(-c4ccc(F)cc4OC)n3)cc21 | 0.0025 | 0.089 | –
8 | CN1CC[C@H](c2c(O)cc(O)c3c(=O)cc(-c4ccccc4Cl)oc23)[C@H](O)C1 | – | – | inhibition (MV4-11 [12]): Active; Activity (MV4-11 [13]): Active; Activity (MV4-11 [14]): Active
9 | CCN1C(=O)COc2c(CN3CCN(C)CC3)cc(Nc3ncc(F)c(-c4ccc(F)cc4OC)n3)cc21 | 0.0054 | 0.253 | –
10 | CCN1C(=O)COc2c(CN3CCOCC3)cc(Nc3nccc(-c4ccc5nnn(C(C)C)c5c4)n3)cc21 | 0.013 | 0.184 | –
11 | CCN1C(=O)COc2c(CN3CCOCC3)cc(Nc3ncc(F)c(-c4ccc(F)cc4OC)n3)cc21 | 0.0011 | 0.105 | –
12 | CCN1C(=O)COc2c(CN3CCOCC3)cc(Nc3nccc(-c4ccc(F)cc4OC)n3)cc21 | 0.0026 | 0.228 | –
13 | CCN1C(=O)COc2c(CN3CCOCC3)cc(Nc3nccc(-c4cccnc4)n3)cc21 | 0.0067 | 0.306 | –
14 | CCN1C(=O)COc2c(CN3CCN(C4COC4)CC3)cc(Nc3ncc(F)c(-c4ccc(F)cc4OC)n3)cc21 | 0.0016 | 0.105 | –
15 | CCN1C(=O)COc2c(CN3CCSCC3)cc(Nc3ncc(F)c(-c4ccc(F)cc4OC)n3)cc21 | 0.0036 | 0.13 | –
16 | CCN1C(=O)COc2c(CN3CCN(S(C)(=O)=O)CC3)cc(Nc3ncc(F)c(-c4ccc(F)cc4OC)n3)cc21 | 0.003 | 0.015 | solubility kinetic at 24 h [1]: 30.5 µg/mL (≈ 51.8 µM); half-life [2]: 15.9 min; C0 at 24 h [3]: 1060 ng/mL; clearance [4]: 68.1 mL/min/kg; MRT last at 24 h [5]: 14.4 min; MRT inf [6]: 14.8 min; AUC(0-t) at 24 h [7]: 245 ng·h/mL; k el at 24 h [8]: 0.000728 s⁻¹; Vd [9]: 1.01 L/kg; AUC(0-inf) [11]: 246 ng·h/mL
17 | CCN1C(=O)COc2c(CN3CCOCC3)cc(Nc3nccc(-c4cn(C)c5ccccc45)n3)cc21 | 0.039 | – | –
18 | CCN1C(=O)COc2c(CN3CCOCC3)cc(Nc3nccc(-c4ccc5nc(C)n(C(C)C)c5c4)n3)cc21 | 0.023 | – | –
19 | CCN1CCN(Cc2cc(Nc3ncc(F)c(-c4ccc(F)cc4OC)n3)cc3c2OCC(=O)N3CC)CC1 | 0.0044 | 0.142 | –
20 | CCN1C(=O)COc2c(CN3CCN(C(C)C)CC3)cc(Nc3ncc(F)c(-c4ccc(F)cc4OC)n3)cc21 | 0.0034 | 0.149 | –
21 | CCN1C(=O)COc2c(CN(C)CCN(C)C)cc(Nc3ncc(F)c(-c4ccc(F)cc4OC)n3)cc21 | 0.0022 | 0.143 | –
22 | CCN1C(=O)COc2c(CN3CCC(N(C)C)C3)cc(Nc3ncc(F)c(-c4ccc(F)cc4OC)n3)cc21 (centres undefined) | 0.0037 | 0.124 | –
23 | CCN1C(=O)COc2c(CN3CCOC[C@H]3C)cc(Nc3ncc(F)c(-c4ccc(F)cc4OC)n3)cc21 | 0.0019 | 0.364 | –
24 | CCN1C(=O)COc2c(CN3CCC(N4CCOCC4)CC3)cc(Nc3ncc(F)c(-c4ccc(F)cc4OC)n3)cc21 | 0.0021 | 0.109 | –
25 | CCN1C(=O)COc2c(CN3CCS(=O)(=O)CC3)cc(Nc3ncc(F)c(-c4ccc(F)cc4OC)n3)cc21 | 0.006 | – | inhibition at 0.37 µM (MV4-11 [15]): 15%
26 | CCN1C(=O)COc2c(CN3CCOCC3)cc(Nc3cc(-c4ccc(F)cc4OC)c(F)cn3)cc21 | 0.042 | – | –
27 | CCN1C(=O)COc2c(CN3CCOCC3)cc(Nc3nccc(-c4ccc5nn(C)c(C(C)C)c5c4)n3)cc21 | 0.021 | – | –
